Assay results as given in US4513001A, “β-Adrenergic 1-[1-benzimidazolyl]-N-[2-(4-hydroxy-3-methoxy-phenyl)-2-hydroxy-ethyl]- 3-amino butane and salts and hydrates thereof” (priority 1982, dated 1985).
Like-named read-outs stand apart in the source and are kept apart here.

Legend:
heart rate [1] = assay: Heart rate of the un-anesthetised dog, oral; format: in vivo, Beagle dog
[2] = Acute toxicity in the mouse, intravenous; settings: in vivo
From the text: These two compounds were the subject of an acute toxicity study in the mouse.
The two compounds had similar toxicity and the pharmacological study was able, indifferently, to be carried out with one or the other, the results being, in the two cases, expressed by weight of base per kg of body weight for the in vivo tests and in molar concentration for the in vitro tests.

heart rate [3] = assay: β-stimulant specificity: heart rate of the anesthetised dog, antagonism of compound A tachycardia by acebutolol; format: in vivo
From the text: The results below are the averages of the values obtained in 3 dogs.

[4] = T1 + 1 min after acebutolol 0.5 mg/kg i.v., following compound A perfusion
[5] = T1 + 5 min after acebutolol 0.5 mg/kg i.v.
[6] = T1 + 15 min after acebutolol 0.5 mg/kg i.v.
[7] = T1 + 30 min (printed T i) after acebutolol 0.5 mg/kg i.v.
[8] = T1 + 1 h after acebutolol 0.5 mg/kg i.v.
[9] = T1 + 4 h after acebutolol 0.5 mg/kg i.v.

## COc1cc(C(O)CNC(C)CCn2cnc3ccccc32)ccc1O.Cl.Cl.O.O (centres unmarked) [Compound B, 1-[1-benzimidazolyl]-N-[2-(4-hydroxy-3-methoxy-phenyl)-2-hydroxy-ethyl]-3-amino-butane dihydrochloride, dihydrate]
Heart rate [1]; 22 μg base/kg, 15 min, time 0: 94, 12 dogs
  Heart rate, average: 130
Heart rate [1]; 22 μg base/kg, 30 min, time 0: 94
  Heart rate, average: 129
Heart rate [1]; 22 μg base/kg, 1 h, time 0: 94
  Heart rate, average: 129
Heart rate [1]; 22 μg base/kg, 2 h, time 0: 94
  Heart rate, average: 119
Heart rate [1]; 22 μg base/kg, 3 h, time 0: 94
  Heart rate, average: 109
Heart rate [1]; 22 μg base/kg, 4 h, time 0: 94
  Heart rate, average: 104
Heart rate [1]; 22 μg base/kg, 5 h, time 0: 94
  Heart rate, average: 102
Heart rate [1]; 72 μg base/kg, 15 min, time 0: 90, 12 dogs
  Heart rate, average: 147
Heart rate [1]; 72 μg base/kg, 30 min, time 0: 90
  Heart rate, average: 162
Heart rate [1]; 72 μg base/kg, 1 h, time 0: 90
  Heart rate, average: 162
Heart rate [1]; 72 μg base/kg, 2 h, time 0: 90
  Heart rate, average: 160
Heart rate [1]; 72 μg base/kg, 3 h, time 0: 90
  Heart rate, average: 146
Heart rate [1]; 72 μg base/kg, 4 h, time 0: 90
  Heart rate, average: 132
Heart rate [1]; 72 μg base/kg, 5 h, time 0: 90
  Heart rate, average: 125
Heart rate [1]; 72 μg base/kg, 6 h, time 0: 90
  Heart rate, average: 115
Heart rate [1]; 72 μg base/kg, 7 h, time 0: 90
  Heart rate, average: 112
Heart rate [1]; un-anesthetised dog, in words
  Tachycardiac activity (comparison with Salbutamol): distinctly less tachycardiac than Salbutamol
[2]; as base, confidence limits printed, read-out: LD50 expressed as base
  LD50: 106 mg/kg
[2]; by weight of product, confidence limits p=0.05 printed, read-out: LD50
  LD50: 148 mg/kg

## CCCC(=O)Nc1ccc(OCC(O)CNC(C)C)c(C(C)=O)c1 (centres unmarked) [Acebutolol, reference compound]
Heart rate [3]; [4]
  Heart rate: 162 beats/min
  Heart rate variation: +5
Heart rate [3]; [5]
  Heart rate: 156 beats/min
  Heart rate variation: -1
Heart rate [3]; [6]
  Heart rate: 149 beats/min
  Heart rate variation: -8
Heart rate [3]; [7]
  Heart rate: 147 beats/min
  Heart rate variation: -10
Heart rate [3]; [8]
  Heart rate: 154 beats/min
  Heart rate variation: -3
Heart rate [3]; [9]
  Heart rate: 143 beats/min
  Heart rate variation: -14
Heart rate [3]; acebutolol 0.5 mg/kg i.v., compound A perfused 6 min at 4.2 μg/kg/min
  Antagonism of the tachycardia caused by compound A: completely antagonises the tachycardia caused by compound A
